# How the values were obtained:
# [1] = test system: endogenous receptor for ATP P2Y; assay: mt-AEQ photon emission, CHO cells, endogenous ATP receptor; type: cell-based; conditions: ATP 100 μM
# Description: (§2) 36 hours after the transfection, the cells, cultivated on flasks for cellular cultures (75 cm^2), were detached from the bottom by trypsinization. The cellular suspension was then transferred to a Falcon tube (of 15 or 50 ml) and subjected to centrifugation at 1200 rpm in a cell centrifuge at 20° C. and finally the cellular precipitate was re-suspended in KRB/Ca^2+ (Krebs-Ringer modified buffer: 125 mM NaCl, 5 mM KCl, 1 mM CaCl2, 1 mM Na3PO4, 1 mM MgSO4, 5.5 mM glucose, 20 mM HEPES, pH 7.4, 37° C.).
# (§3) The prosthetic group celentherazine was added at a final concentration of 5 μM to the suspension of engineered cells expressing the mt-AEQ probe.
# (§4) 50 μl of suspension containing transfected cells (corresponding to about 100,000 cells) were planted in each well of the plate. The cells were left to adhere for a time varying from 1 to 2 hours keeping them in the dark, due to the photo-instability of celentherazine.
# (§5) At the end of the incubation time, the various molecules to be tested were added to each well and the plate with the treated cells was then put in direct contact with a photo-multiplier which measures the emission of photons on the part of aequorin.
# [2] = test system: PKC-aequorin (PKC-AEQ) probe: PKC beta, delta, epsilon, zeta; assay: Translocation of PKC-aequorin probe to the plasmatic membrane, HeLa cells, photon emission; type: cell-based
# Description: In the specific example, the results presented relate to the use of the PKC beta-aequorin (PCKβ-AEQ), PKC delta-aequorin (PCKδ-AEQ), PKC epsilon-aequorin (PCKε-AEQ), PKC zeta-aequorin (PCKζ-AEQ) probes.
# These probes were obtained by inserting, in a eukaryotic expression vector (pcDNA3; 5.4 kb), the sequence encoding the various PKC isoforms condensed in frame with the sequence encoding aequorin described above.
# The cells cultivated on cellular culture flasks (75 cm^2) were transfected with a vector containing the chimeric probe produced, using the most suitable transfection techniques for the cellular line in question. As the HeLa stabilized cellular line was used as experimental model, the calcium phosphate technique was adopted as transfection method which guarantees a high percentage of positive cells for this cellular line.
# (§1) 36 hours after transfection, the cells contained in the flask were detached from the bottom by trypsinization.
# The prosthetic group celentherazine was added to the suspension of cells expressing the PKC-aequorin probe at a final concentration of 5 μM. […]
# [3] = target: endogenous receptor for histamine Hi (Homo sapiens, UniProt P35367); conditions: HeLa mt-AEQ cells, histamine 100 μM
# Description: (§6) The cellular lines thus engineered were then both transfected with the vector containing the mt-AEQ probe by means of the calcium phosphate technique.
# as §2, §3, §4
# (§7) At the end of the incubation time, the various molecules to be tested were added to each well and the plate with the treated cells was then put in direct contact with a photo-multiplier which measures the emission of photons on the part of aequorin. […]
# beta adrenergic receptor = assay: mt-AEQ photon emission, control HeLa cells expressing beta adrenergic receptor; type: cell-based; conditions: control HeLa cells expressing a beta adrenergic receptor, stimulated with isoproterenol
# Description: as §2, §3, §4, §5
# HeLa cells expressing a beta adrenergic receptor and stimulated with isoproterenol for inducing the stimulation of said receptor, were used as control (dotted line).
# [4] = test system: beta/alpha adrenergic receptor (chimeric); assay: mt-AEQ photon emission, HeLa cells expressing chimeric beta/alpha adrenergic receptor; type: cell-based; conditions: HeLa mt-AEQ cells with chimeric receptor, isoproterenol 100 μM; from less than 20 before stimulation
# Description: as §6, §2, §3, §4, §7
# [5] = test system: PKC beta-aequorin (PKCβ-AEQ) probe; assay: Translocation of PKC beta-aequorin probe under hyperglycaemia conditions, HUVEC cells; type: cell-based; conditions: 10 mM glucose plus metformin 20 μM
# Description: A beta-aequorin PKC probe, already described in example 1, was used, with which HUVEC endothelial cells were transfected. The cells cultivated on cellular culture flasks (75 cm^2) were transfected with a vector containing the chimeric probe produced, using the most suitable transfection techniques for the cellular line in question. Endothelial cells of stabilized umbilical cord veins, called HUVEC, were used as the experimental model, which were transfected with the PKC beta-aequorin probe, using lipofectamine which guarantees a high percentage of positive cells for this cellular line. 36 hours after transfection, the cells contained in the flask were detached from the bottom by trypsinization. […] The prosthetic group celentherazine at a final concentration of 5 μM was added to the cell suspension expressing the PKC beta-aequorin probe. […] The example provided was carried out on three parallel batches of cells: a) HUVEC cells expressing the PKC beta-aequorin (PKCβ-AEQ) probe, maintained under control conditions (absence of glucose) (dotted line). b) HUVEC cells expressing the PKC beta-aequorin (PKCβ-AEQ) probe, maintained under hyperglycaemia conditions (10 mM of glucose) (dark, thick line). c) HUVEC cells expressing the PKC beta-aequorin (PKCβ-AEQ) probe, maintained under hyperglycaemia conditions (10 mM of glucose) treated with a well-known anti-diabetic agent, metformin (20 μM) (dark, thin line).
# [6] = test system: p66shc-aequorin (p66shc-AEQ) probe; assay: Translocation of p66shc-aequorin probe to the plasmatic membrane, A431 cells; type: cell-based
# Description: This probe was obtained by inserting, in a eukaryotic expression vector (pcDNA3; 5.4 kb), the sequence encoding the p66shc protein condensed in frame with the sequence encoding aequorin.
# The cells cultivated on cellular culture flasks (75 cm^2) were transfected with a vector containing the chimeric probe produced, using the most suitable transfection techniques for the cellular line in question. The stabilized transfected cellular line A431 was adopted as experimental model, using the “Effectene reagent” procedure (Qiagen, Germany), which guarantees a high percentage of positive cells for this cellular line.
# 24 hours after the transfection, the cells were maintained in a DMEM culture medium, without serum.
# as §1
# The prosthetic group celentherazine was added to the suspension of cells expressing the p66shc-aequorin probe, at a final concentration of 5 μM. […]
# [7] = test system: ORL1/alpha adrenergic receptor (chimeric); assay: mt-AEQ photon emission, CHO cells expressing chimeric ORL1/alpha adrenergic receptor; type: cell-based; conditions: CHO mt-AEQ cells with chimeric receptor, nociceptine 1 μM; from less than 20 before stimulation
# Description: as §6, §2, §3, §4, §7
# [8] = from less than 20 before stimulation
# Sequence of endogenous receptor for histamine Hi (P35367 whole entry): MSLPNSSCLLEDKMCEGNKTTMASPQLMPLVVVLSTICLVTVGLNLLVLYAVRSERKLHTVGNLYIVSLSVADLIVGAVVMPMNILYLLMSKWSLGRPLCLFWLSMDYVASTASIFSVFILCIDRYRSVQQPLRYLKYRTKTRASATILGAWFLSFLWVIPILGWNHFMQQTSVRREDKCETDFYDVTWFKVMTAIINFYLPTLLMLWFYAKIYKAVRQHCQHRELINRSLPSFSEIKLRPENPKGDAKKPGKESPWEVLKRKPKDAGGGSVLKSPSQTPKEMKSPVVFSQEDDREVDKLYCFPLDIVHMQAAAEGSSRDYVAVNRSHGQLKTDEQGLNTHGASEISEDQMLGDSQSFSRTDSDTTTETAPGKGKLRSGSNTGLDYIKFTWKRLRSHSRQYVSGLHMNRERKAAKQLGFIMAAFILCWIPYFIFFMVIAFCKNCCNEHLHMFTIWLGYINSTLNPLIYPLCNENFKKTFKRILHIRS
molecule,measurement,setting,value
Nc1ncnc2c1ncn2[C@@H]1O[C@H](COP(=O)(O)OP(=O)(O)OP(=O)(O)O)[C@@H](O)[C@H]1O [ATP],concentration of calcium in the mitochondrial matrix,[1],considerable and transient increase
same,emission of photons on the part of aequorin,[1]; [8],"over 80,000 photons emitted per second"
CCCCCCCCCCCCCC(=O)O[C@@H]1[C@@H](C)[C@@]2(O)[C@@H](C=C(CO)C[C@]3(O)C(=O)C(C)=C[C@@H]23)[C@@H]2C(C)(C)[C@]12OC(C)=O [PMA],emission of photons,"[2]; HeLa PKC-AEQ cells, PMA 1 μM, after addition of external calcium","> 100,000 cps"
same,emission of photons,"[2]; HeLa cells, absence of external calcium",lower than 100 cps
"NCCc1c[nH]cn1 [histamine, Histamine]",concentration of calcium in the mitochondrial matrix,[3],considerable and transient increase
same,emission of photons on the part of aequorin,[3]; [8],"over 80,000 photons emitted per second"
"CC(C)NCC(O)c1ccc(O)c(O)c1 (centres unmarked) [isoproterenol, Isoproterenol]",increase in cps,beta adrenergic receptor,does not induce any increase in cps
same,emission of photons on the part of aequorin,[4],"over 80,000 photons emitted per second"
CN(C)C(=N)N=C(N)N [metformin],emission of photons,"[5]; HUVEC PKCβ-AEQ cells, after addition of external calcium","lower than 40,000 cps"
same,inhibition of the PKCβ-AEQ probe translocation (grade),[5]; HUVEC,good inhibition
same,translocation induced by glucose under hyperglycaemia conditions,[5]; HUVEC,inhibits the translocation
"EGF: epidermic growth factor, maximal activator of p66shc translocation",emission of photons,"[6]; A431 cells, absence of external calcium",lower than 100 cps
same,emission of photons,"[6]; A431 p66shc-AEQ cells, EGF 100 ng/ml, after addition of external calcium","> 100,000 cps"
Nociceptine,emission of photons on the part of aequorin,[7],"over 80,000 photons emitted per second"

# Reference: US20080003569A1, “Method for the Detection of Intracellular Parameters With Luminescent Protein Probes for the Screening of Molecules Capable of Altering Said Parameters” (priority 2004, published 2008)
